Experimental data taken from patent US10077209B2, “Glazing unit comprising a hydrophilic layer having an improved scratch resistance” (SAINT-GOBAIN GLASS FRANCE, priority 2013, dated 2018).

Test: Solubility of bis-urea monomers in diacetone alcohol (DAA)
Format: physicochemical
Conditions: solvent diacetone alcohol
Description: Three bis-urea monomers were synthesized from toluene-2,4-diisocyanate (TDI) on the one hand, 6-amino-1-hexanol, 2-amino-1-butanol and 2-aminopropanol on the other hand, all purchased from Aldrich. The TDI was stored at 4° C. with the aim of preventing side reactions. The dichloromethane was obtained from VWR and distilled and dried before use. The table below indicates the No. assigned to each bis-urea in the rest of the example, the starting products for its synthesis, a schematic representation of its formula and its solubility in DAA.

Solubility in DAA	SMILES
8 % by wt.	Cc1ccc(NC(=O)NCC(C)O)cc1NC(=O)NCC(C)O (stereo not drawn) [Bis-urea1]
7.5 % by wt.	Cc1ccc(NC(=O)NCCCCCCO)cc1NC(=O)NCCCCCCO [Bis-urea4]
2.4 % by wt.	CCC(CO)NC(=O)Nc1ccc(C)c(NC(=O)NC(CC)CO)c1 (stereo not drawn) [Bis-urea5]
